These results are taken from ChEMBL document CHEMBL5725273, “Thienopyranones as kinase and epigenetic inhibitors” (2016).

Assay [1] has as its target Bromodomain-containing protein 4 (Homo sapiens, UniProt O60885). Briefly: (§1) Inhibition Assay: Several TP Scaffold compounds were tested for inhibition activity against isoforms of PI3K (alpha, beta, gamma, and delta isoforms) and the bromodomain protein BRD4 at regions 1 (BRD4-1) and 2 (BRD4-2).
The target in assay [2] is Phosphatidylinositol 4,5-bisphosphate 3-kinase catalytic subunit alpha isoform (Homo sapiens, UniProt P42336). The description is as §1.
Sequence of Phosphatidylinositol 4,5-bisphosphate 3-kinase catalytic subunit alpha isoform (P42336 whole entry, canonical isoform): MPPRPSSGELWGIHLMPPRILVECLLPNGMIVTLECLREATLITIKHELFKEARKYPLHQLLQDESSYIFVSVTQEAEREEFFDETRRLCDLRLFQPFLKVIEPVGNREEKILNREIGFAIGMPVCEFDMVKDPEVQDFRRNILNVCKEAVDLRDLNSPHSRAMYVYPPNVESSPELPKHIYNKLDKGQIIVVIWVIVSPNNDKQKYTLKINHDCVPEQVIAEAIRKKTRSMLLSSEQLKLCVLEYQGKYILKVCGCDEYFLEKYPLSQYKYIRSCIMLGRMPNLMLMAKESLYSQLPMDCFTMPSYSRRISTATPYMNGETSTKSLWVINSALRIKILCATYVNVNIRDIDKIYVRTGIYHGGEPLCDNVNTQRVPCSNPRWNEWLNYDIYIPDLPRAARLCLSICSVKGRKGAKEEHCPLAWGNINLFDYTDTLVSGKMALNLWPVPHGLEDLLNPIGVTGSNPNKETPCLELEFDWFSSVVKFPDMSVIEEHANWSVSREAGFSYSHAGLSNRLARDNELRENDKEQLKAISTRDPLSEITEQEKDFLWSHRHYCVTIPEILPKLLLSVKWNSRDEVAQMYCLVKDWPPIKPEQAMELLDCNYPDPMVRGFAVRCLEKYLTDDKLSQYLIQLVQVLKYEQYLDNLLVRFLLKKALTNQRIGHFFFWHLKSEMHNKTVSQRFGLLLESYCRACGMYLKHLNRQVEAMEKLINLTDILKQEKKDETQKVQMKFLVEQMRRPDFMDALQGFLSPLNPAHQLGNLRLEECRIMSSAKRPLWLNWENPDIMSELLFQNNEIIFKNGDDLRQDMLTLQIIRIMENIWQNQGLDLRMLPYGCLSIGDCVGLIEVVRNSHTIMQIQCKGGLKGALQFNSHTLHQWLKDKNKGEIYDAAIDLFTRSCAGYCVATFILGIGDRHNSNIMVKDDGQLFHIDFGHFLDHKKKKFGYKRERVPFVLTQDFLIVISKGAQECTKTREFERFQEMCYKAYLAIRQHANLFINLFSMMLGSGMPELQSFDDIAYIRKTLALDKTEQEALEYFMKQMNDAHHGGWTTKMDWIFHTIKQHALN
For assay [3], the target named is T1, Phosphatidylinositol 4,5-bisphosphate 3-kinase catalytic subunit delta isoform (Homo sapiens, UniProt O00329).
T1 sequence (O00329 whole entry): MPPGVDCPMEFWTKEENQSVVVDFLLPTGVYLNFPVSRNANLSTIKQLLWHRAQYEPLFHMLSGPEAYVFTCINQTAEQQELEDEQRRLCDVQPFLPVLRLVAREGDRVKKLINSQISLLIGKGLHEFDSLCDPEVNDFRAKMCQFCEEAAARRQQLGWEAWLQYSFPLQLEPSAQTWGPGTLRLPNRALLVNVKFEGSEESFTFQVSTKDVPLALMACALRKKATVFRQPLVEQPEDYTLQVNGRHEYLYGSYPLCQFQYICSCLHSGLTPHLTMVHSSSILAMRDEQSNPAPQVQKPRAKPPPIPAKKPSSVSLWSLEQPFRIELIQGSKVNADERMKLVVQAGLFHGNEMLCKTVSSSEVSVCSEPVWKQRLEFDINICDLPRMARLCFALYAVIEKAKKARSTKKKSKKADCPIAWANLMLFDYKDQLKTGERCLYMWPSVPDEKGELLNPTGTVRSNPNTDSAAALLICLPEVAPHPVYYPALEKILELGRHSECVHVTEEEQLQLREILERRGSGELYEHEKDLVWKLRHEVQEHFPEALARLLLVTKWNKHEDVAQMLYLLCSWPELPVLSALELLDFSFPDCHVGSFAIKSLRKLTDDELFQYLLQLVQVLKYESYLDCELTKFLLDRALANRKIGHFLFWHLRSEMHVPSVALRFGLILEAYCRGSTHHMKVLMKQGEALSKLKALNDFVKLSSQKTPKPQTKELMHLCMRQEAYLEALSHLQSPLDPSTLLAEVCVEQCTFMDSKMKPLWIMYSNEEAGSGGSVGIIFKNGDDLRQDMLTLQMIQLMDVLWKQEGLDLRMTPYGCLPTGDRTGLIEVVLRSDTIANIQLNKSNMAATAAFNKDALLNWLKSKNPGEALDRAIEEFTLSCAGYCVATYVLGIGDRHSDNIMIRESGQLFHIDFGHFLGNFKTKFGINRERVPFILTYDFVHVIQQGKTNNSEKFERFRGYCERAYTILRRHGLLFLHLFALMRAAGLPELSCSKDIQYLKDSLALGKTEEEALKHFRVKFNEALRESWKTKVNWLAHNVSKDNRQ
Described as §1.

Assay [4] addresses Phosphatidylinositol 4,5-bisphosphate 3-kinase catalytic subunit gamma isoform (Homo sapiens, UniProt P48736). Described as §1.

A value given as a limit tells only on which side of the number the result lay.

Sequence of Phosphatidylinositol 4,5-bisphosphate 3-kinase catalytic subunit gamma isoform (P48736 whole entry, canonical isoform): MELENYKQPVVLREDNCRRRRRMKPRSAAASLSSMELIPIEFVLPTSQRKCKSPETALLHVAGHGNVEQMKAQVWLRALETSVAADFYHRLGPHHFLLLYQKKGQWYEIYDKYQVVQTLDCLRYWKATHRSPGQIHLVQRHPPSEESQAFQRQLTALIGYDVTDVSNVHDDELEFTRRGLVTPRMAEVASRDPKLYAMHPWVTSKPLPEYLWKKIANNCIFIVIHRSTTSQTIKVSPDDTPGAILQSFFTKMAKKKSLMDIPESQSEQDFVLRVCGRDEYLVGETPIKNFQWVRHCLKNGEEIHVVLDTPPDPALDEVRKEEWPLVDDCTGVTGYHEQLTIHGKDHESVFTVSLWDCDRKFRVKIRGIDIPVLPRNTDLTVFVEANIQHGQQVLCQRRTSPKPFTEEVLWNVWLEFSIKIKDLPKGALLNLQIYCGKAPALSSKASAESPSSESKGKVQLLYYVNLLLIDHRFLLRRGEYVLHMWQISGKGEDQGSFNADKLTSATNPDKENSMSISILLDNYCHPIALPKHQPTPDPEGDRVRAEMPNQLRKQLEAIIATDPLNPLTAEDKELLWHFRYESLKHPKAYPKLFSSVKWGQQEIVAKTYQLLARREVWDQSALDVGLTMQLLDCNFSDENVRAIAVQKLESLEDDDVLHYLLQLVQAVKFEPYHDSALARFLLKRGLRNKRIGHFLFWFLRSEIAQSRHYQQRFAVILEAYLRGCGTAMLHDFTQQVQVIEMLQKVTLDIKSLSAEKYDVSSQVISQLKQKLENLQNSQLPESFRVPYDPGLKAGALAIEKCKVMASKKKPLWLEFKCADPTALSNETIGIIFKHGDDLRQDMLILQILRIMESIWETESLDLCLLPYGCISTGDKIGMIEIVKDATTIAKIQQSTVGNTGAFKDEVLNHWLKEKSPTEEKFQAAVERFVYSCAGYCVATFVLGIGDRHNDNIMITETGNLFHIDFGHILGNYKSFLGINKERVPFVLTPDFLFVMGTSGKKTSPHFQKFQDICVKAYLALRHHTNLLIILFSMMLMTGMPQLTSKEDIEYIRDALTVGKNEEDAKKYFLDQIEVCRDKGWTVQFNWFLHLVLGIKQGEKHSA

A word on the IC50: it is the concentration at which inhibition is half-maximal. For the molecule `CCOC(=O)c1ccc(-c2csc3c(=O)cc(N4CCSCC4)oc23)cc1`, the IC50 in assay [1] is 1010 nM; in assay [2], 29.1 µM; in assay [3], 2490 nM; in assay [4], more than 50 µM.
